# From PMC7385619, “A triple action CDK4/6-PI3K-BET inhibitor with augmented cancer cell cytotoxicity” (Cell Discovery, 2020)
# Several values for one entry are separate records, joined by “and”; a condition that tells them apart may be missing. Equal entries are not always repeated.
# Columns and labels:
# CDK2 = molecular target: T1, CDK2 (Homo sapiens, UniProt P24941); assay: In vitro kinase assay, CDK2; type: biochemical; conditions: Fig. 1b; italicized values from the literature (italics not visible)
# T1 construct: purchased Reaction Biology
# bromodomain panel = assay: BROMOscan assay (Eurofins DiscoverX); type: binding
# [1] = tested on: BRD4 binding to the MYC TSS in Huh7 and Jeko-1 cells; assay: Chromatin immunoprecipitation of BRD4 at the MYC transcriptional start site; type: cell-based, human
# Protocol: assay for comparison relative to the no-drug control and to the time zero number of cells for assessment of growth inhibition (values between 0 and 100) and lethality (values less than 0), […]
# Hepatocellular carcinoma cells (Hep3B, HepG2, and Huh7), neuroblastoma cells (CHLA-255, CHLA-136, and SMS-KNCR), mantle cell lymphoma (Granta-519, Mino, and Jeko-1), or normal tonsillar epithelial cells (RRP008) were seeded in complete medium in 96-well tissue culture plates at 2.5 x 10^3 to 1 x 10^4 cells per well, respectively. Cells were incubated overnight to allow for attachment of adherent cells. […]
# or 100 µM in triplicate the following day. Cells were incubated for 48 hours at 37 °C then treated with either CCK8 reagent (Dojindo Molecular Technologies, Rockville, MD) or Alamar Blue (ThermoFisher Scientific) and incubated for 3-6 hours at 37 °C. For CCK8, absorbance was measured at 450 nm; for Alamar Blue, fluorescence signals were read as emission at 590 nm after excitation at 560 nm. Averaged values were normalized as a percentage of control and plotted and regressed for dose response using GraphPad Prism (GraphPad Software, Inc., La […]
# Chromatin immunoprecipitation
# Chromatin immunoprecipitation assays using antibodies against BRD4 and an isotype control and primers designed to the MYC transcriptional site and a non-regulated upstream locus were performed as previously described8. […]
# BRD3 (BD1) = molecular target: T2, BRD3 (BD1) (Homo sapiens, UniProt Q15059); assay: AlphaScreen bromodomain binding assay, BRD3 BD1; conditions: Fig. 1b; italicized values from the literature (italics not visible)
# T2 construct: tagged bromodomains and acetylated histone peptides as; purchased Reaction Biology
# [2] = tested on: NCI-60 Panel of Human Tumor Cell Line; type: cell-based; conditions: 10 µM, one-dose assay
# kinome (kinase panel) [3] = molecular target: T3, kinome (kinase panel) (Homo sapiens, UniProt P43405); assay: KINOMEscan assay (Eurofins DiscoverX); type: binding; conditions: SYK; 1000 nM; read-out: Percent Control
# T3 construct: purchased Eurofins DiscoverX
# kinome (kinase panel) [4] = molecular target: T4, kinome (kinase panel) (Homo sapiens, UniProt Q9UQ88); assay: KINOMEscan assay (Eurofins DiscoverX); type: binding; conditions: CDC2L2; 1000 nM; read-out: Percent Control
# T4 construct: purchased Eurofins DiscoverX
# kinome (kinase panel) [5] = molecular target: T5, kinome (kinase panel) (Homo sapiens, UniProt P42336, E542K); assay: KINOMEscan assay (Eurofins DiscoverX); type: binding; conditions: read-out: Percent Control
# T5 construct: purchased Eurofins DiscoverX
# kinome (kinase panel) [6] = molecular target: T6, kinome (kinase panel) (Homo sapiens, UniProt Q05397); assay: KINOMEscan assay (Eurofins DiscoverX); type: binding; conditions: FAK (Entrez PTK2); 1000 nM; read-out: Percent Control
# T6 construct: purchased Eurofins DiscoverX
# kinome (kinase panel) [7] = molecular target: T7, kinome (kinase panel) (Homo sapiens, UniProt P00519, F317L); assay: KINOMEscan assay (Eurofins DiscoverX); type: binding
# T7 construct: purchased Eurofins DiscoverX
# kinome (kinase panel) [8] = molecular target: T8, kinome (kinase panel) (Homo sapiens, UniProt Q8IW41); assay: KINOMEscan assay (Eurofins DiscoverX); type: binding; conditions: MAPKAPK5; 1000 nM; read-out: Percent Control
# T8 construct: purchased Eurofins DiscoverX
# kinome (kinase panel) [9] = molecular target: T9, kinome (kinase panel) (Homo sapiens, UniProt Q9BYT3); assay: KINOMEscan assay (Eurofins DiscoverX); type: binding; conditions: STK33; 1000 nM; read-out: Percent Control
# T9 construct: purchased Eurofins DiscoverX
# kinome (kinase panel) [10] = molecular target: T10, kinome (kinase panel) (Homo sapiens, UniProt P07949, M918T); assay: KINOMEscan assay (Eurofins DiscoverX); type: binding; conditions: read-out: Percent Control
# T10 construct: purchased Eurofins DiscoverX
# kinome (kinase panel) [11] = molecular target: T11, kinome (kinase panel) (Homo sapiens, UniProt O14730); assay: KINOMEscan assay (Eurofins DiscoverX); type: binding; conditions: RIOK3; 1000 nM; read-out: Percent Control
# T11 construct: purchased Eurofins DiscoverX
# kinome (kinase panel) [12] = molecular target: T12, kinome (kinase panel) (Homo sapiens, UniProt Q9P289); assay: KINOMEscan assay (Eurofins DiscoverX); type: binding; conditions: MST4; 1000 nM; read-out: Percent Control
# T12 construct: purchased Eurofins DiscoverX
# kinome (kinase panel) [13] = molecular target: T13, kinome (kinase panel) (Homo sapiens, UniProt Q6ZWH5); assay: KINOMEscan assay (Eurofins DiscoverX); type: binding; conditions: NEK10; 1000 nM; read-out: Percent Control
# T13 construct: purchased Eurofins DiscoverX
# kinome (kinase panel) [14] = molecular target: T14, kinome (kinase panel) (Homo sapiens, UniProt P15056, V600E); assay: KINOMEscan assay (Eurofins DiscoverX); type: binding; conditions: […]; 1000 nM; read-out: Percent Control
# T14 construct: purchased Eurofins DiscoverX
# kinome (kinase panel) [15] = molecular target: T15, kinome (kinase panel) (Homo sapiens, UniProt P08922); assay: KINOMEscan assay (Eurofins DiscoverX); type: binding; conditions: ROS1; 1000 nM; read-out: Percent Control
# T15 construct: purchased Eurofins DiscoverX
# mTOR = mTOR (Homo sapiens, UniProt P42345); assay: In vitro kinase assay, mTOR; type: biochemical; conditions: Fig. 1b; italicized values from the literature (italics not visible)
# CDK9 = molecular target: T16, CDK9 (Homo sapiens, UniProt P50750); assay: In vitro kinase assay, CDK9; type: biochemical; conditions: Fig. 1b; italicized values from the literature (italics not visible)
# T16 construct: purchased Reaction Biology
# [16] = Cell viability (cytotoxicity) assay, normal tonsillar epithelial cells; type: cell-based; conditions: human, normal tonsillar epithelial cells (RRP008), surrogate for toxicity of normal tissue, read-out: Half maximal inhibitory concentration (IC50) in cell line cytotoxicity assays, Tonsillar Epithelia
# BRD3 (BD2) = molecular target: T17, BRD3 (BD2) (Homo sapiens, UniProt Q15059); assay: AlphaScreen bromodomain binding assay, BRD3 BD2; conditions: Fig. 1b; italicized values from the literature (italics not visible)
# T17 construct: tagged bromodomains and acetylated histone peptides as; purchased Reaction Biology
# [17] = tested on: Hepatocellular carcinoma cells (Hep3B, HepG2, and Huh7); assay: Cell viability (cytotoxicity) assay, hepatocellular carcinoma cells; type: cell-based; conditions: Homo sapiens; 48 hours, CCK8 or Alamar Blue; curves of Fig. 1f-j; read-out: Half maximal inhibitory concentration (IC50) in cell line cytotoxicity assays, Hepatocellular Carcinoma
# CDK4 = CDK4 (Homo sapiens, UniProt P11802); assay: In vitro kinase assay, CDK4; type: biochemical; conditions: Fig. 1b; italicized values from the literature (italics not visible)
# [18] = tested on: mantle cell lymphoma (Granta-519, Mino, and Jeko-1); assay: Cell viability (cytotoxicity) assay, mantle cell lymphoma cells; type: cell-based; conditions: Homo sapiens; 48 hours, CCK8 or Alamar Blue; curves of Fig. 1f-j; read-out: Half maximal inhibitory concentration (IC50) in cell line cytotoxicity assays, Mantle Cell Lymphoma
# [19] = tested on: neuroblastoma cells (CHLA-255, CHLA-136, and SMS-KNCR); assay: Cell viability (cytotoxicity) assay, neuroblastoma cells; type: cell-based; conditions: Homo sapiens, 48 hours, CCK8 or Alamar Blue, curves of Fig. 1f-j, read-out: Half maximal inhibitory concentration (IC50) in cell line cytotoxicity assays, Neuroblastoma
# BRD2 (BD1) = molecular target: T18, BRD2 (BD1) (Homo sapiens, UniProt P25440); assay: AlphaScreen bromodomain binding assay, BRD2 BD1; conditions: Fig. 1b; italicized values from the literature (italics not visible)
# T18 construct: tagged bromodomains and acetylated histone peptides as; purchased Reaction Biology
# T18 sequence (P25440 74-180 limits assumed): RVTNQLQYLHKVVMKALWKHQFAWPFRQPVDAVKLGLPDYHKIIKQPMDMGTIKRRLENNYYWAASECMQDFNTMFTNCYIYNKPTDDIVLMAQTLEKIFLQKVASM
# T7 sequence (P00519 whole entry F317L): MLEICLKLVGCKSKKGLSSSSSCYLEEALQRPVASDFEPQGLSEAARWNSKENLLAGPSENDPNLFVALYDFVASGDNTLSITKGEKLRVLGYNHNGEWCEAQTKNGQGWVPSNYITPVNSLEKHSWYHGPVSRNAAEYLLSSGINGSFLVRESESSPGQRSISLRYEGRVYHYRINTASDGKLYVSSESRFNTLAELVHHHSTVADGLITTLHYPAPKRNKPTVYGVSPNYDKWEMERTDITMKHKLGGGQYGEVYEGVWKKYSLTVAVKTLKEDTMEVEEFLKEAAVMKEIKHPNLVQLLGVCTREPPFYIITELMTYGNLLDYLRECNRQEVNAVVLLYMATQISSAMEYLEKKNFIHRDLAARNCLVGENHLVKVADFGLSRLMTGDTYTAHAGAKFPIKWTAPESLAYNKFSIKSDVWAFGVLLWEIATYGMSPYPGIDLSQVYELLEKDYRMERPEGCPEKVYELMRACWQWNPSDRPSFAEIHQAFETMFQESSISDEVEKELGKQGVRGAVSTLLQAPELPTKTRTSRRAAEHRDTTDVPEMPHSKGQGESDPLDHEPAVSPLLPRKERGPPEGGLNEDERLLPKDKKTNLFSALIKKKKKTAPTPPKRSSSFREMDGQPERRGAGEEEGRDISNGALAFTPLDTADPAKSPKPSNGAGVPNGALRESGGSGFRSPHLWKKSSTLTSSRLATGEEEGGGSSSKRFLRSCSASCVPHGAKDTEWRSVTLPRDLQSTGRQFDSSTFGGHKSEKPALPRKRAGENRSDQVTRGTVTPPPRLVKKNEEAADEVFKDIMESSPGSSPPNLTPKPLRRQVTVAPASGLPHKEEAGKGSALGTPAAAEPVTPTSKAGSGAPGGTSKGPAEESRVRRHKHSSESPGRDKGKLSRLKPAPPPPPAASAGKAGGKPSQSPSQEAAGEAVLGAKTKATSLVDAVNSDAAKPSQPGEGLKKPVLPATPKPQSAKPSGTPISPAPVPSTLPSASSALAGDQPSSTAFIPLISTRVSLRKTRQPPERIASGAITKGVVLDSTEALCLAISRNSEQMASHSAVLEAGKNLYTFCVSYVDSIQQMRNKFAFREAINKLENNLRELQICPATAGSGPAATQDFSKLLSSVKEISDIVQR
# CDK4, sequence (P11802 whole entry): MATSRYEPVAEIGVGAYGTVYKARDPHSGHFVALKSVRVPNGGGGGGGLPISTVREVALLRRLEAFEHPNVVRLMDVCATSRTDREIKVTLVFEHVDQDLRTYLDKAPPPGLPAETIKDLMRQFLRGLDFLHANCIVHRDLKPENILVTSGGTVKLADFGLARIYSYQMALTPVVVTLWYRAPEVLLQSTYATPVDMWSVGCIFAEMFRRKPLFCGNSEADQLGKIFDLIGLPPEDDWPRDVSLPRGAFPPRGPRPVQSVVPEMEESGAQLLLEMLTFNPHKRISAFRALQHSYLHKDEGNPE
# CDK4, sequence (P24385 whole entry partner): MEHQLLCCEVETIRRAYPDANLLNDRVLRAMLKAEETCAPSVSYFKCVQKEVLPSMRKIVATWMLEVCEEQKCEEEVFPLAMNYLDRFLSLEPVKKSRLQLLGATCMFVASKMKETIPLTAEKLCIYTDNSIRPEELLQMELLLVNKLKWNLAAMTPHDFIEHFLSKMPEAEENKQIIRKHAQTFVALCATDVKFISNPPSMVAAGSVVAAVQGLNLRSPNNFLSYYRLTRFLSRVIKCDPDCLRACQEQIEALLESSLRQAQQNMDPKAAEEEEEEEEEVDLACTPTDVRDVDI
# T2 sequence (Q15059 34-140 limits assumed): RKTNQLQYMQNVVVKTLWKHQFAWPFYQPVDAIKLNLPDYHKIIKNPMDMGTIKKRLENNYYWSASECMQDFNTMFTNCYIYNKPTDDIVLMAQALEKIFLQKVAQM
# T6 sequence (Q05397 whole entry): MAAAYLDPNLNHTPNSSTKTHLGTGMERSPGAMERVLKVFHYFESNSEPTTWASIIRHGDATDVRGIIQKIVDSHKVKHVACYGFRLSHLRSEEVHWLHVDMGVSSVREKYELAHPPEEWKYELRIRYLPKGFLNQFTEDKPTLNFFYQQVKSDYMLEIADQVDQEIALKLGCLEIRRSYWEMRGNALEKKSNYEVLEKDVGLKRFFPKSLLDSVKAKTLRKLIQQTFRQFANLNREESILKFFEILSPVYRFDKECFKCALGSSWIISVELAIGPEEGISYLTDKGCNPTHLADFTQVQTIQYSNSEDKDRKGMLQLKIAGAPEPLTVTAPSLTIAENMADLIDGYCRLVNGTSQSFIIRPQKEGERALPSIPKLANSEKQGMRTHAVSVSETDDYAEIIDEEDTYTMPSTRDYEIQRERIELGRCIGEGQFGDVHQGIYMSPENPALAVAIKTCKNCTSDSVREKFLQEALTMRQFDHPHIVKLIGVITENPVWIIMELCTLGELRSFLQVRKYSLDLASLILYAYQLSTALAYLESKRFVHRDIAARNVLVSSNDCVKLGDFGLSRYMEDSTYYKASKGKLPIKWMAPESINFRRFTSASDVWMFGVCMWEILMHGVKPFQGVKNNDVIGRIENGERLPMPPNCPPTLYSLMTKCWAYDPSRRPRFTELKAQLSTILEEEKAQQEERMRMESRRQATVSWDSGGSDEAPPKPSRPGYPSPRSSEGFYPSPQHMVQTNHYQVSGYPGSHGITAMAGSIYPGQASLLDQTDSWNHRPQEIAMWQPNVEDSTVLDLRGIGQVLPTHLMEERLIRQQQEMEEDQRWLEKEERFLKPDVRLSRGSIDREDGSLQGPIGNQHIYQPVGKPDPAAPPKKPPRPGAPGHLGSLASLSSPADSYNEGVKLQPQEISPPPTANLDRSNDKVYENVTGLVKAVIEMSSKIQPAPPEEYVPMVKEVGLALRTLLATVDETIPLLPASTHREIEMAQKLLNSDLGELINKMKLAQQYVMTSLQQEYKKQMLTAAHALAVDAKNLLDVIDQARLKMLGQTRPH
# T16 sequence (P50750 whole entry): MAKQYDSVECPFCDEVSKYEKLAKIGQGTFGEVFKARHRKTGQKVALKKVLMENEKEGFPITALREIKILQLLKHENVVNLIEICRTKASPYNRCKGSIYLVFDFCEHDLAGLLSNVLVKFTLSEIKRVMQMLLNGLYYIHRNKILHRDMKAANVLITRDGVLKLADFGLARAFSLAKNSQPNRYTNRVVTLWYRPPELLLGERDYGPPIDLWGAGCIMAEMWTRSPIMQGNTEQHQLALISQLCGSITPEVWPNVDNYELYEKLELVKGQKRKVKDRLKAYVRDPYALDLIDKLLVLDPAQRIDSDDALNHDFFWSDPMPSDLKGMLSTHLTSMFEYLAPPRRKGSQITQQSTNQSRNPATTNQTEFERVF
# T16 sequence (O60563 whole entry partner): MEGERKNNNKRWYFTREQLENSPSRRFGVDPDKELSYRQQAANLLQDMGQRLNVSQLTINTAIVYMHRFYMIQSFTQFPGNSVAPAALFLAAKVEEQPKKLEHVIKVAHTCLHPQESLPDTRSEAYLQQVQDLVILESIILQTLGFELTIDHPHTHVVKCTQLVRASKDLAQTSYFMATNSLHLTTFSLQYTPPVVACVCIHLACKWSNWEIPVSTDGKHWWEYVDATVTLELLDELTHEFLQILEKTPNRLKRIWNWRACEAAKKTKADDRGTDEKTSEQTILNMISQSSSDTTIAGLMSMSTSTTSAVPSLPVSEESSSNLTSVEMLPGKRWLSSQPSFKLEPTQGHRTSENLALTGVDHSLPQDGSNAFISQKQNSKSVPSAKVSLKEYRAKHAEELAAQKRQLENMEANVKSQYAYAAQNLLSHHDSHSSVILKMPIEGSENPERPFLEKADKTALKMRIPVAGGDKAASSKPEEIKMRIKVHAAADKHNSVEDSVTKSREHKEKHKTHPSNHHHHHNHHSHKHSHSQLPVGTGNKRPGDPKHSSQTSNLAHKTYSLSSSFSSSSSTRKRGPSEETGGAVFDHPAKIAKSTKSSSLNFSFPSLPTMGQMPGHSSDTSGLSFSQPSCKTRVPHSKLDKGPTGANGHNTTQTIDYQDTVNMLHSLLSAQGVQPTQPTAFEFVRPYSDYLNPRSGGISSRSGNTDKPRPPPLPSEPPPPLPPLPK
# T14 sequence (P15056 whole entry V600E): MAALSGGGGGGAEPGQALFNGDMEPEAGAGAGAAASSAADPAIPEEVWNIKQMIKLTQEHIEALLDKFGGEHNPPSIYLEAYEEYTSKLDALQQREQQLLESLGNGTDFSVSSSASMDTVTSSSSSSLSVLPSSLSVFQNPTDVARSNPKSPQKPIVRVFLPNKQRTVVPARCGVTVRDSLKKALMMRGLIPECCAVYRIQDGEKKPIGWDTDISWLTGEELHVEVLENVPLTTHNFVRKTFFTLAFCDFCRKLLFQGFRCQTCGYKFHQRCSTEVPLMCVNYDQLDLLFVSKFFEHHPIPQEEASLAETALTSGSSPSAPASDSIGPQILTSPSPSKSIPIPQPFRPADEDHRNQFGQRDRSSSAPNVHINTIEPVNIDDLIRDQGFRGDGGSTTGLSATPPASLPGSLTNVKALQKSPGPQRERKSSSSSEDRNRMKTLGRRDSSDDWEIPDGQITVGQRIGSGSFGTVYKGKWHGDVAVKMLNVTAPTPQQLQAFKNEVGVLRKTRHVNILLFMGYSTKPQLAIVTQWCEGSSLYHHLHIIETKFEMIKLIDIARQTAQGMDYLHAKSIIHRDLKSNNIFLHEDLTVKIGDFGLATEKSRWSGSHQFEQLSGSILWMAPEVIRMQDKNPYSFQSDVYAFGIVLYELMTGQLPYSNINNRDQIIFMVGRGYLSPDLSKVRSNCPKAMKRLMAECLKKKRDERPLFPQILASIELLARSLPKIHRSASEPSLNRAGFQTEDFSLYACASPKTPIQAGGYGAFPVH
# T17 sequence (Q15059 306-415 limits assumed): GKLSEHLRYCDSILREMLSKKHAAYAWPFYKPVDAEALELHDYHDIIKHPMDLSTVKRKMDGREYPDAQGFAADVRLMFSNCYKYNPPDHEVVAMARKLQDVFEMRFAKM
smiles,measurement,setting,value
CN(C)C(=O)c1cc2cnc(Nc3ccc(-c4csc5c(=O)cc(N6CCOCC6)oc45)cc3)nc2n1C1CCCC1 [SRX3177],IC50,CDK2,500 nM
same,specificity in BROMOscan,bromodomain panel,lack of off-targeting
same,occupancy of BRD4 at the transcriptional start site (TSS) of MYC by ChIP,[1],abrogated binding of BRD4 to the MYC TSS
same,IC50,BRD3 (BD1),106 nM
same,cytotoxic effect in the NCI-60 panel,[2],cytotoxic effects on the majority of the cell lines tested
same,tumor cytotoxicity compared to SF2523 or SRX3177P,[2]; NCI-60 panel,greater tumor cytotoxicity
same,remaining binding at 1 µM,kinome (kinase panel) [3],81%
same,remaining binding at 1 µM,kinome (kinase panel) [4],93%
same,remaining binding at 1 µM,kinome (kinase panel) [5],40%
same,remaining binding at 1 µM,kinome (kinase panel) [6],90%
same,Percent Control,kinome (kinase panel) [7],89 and 56
same,remaining binding at 1 µM,kinome (kinase panel) [8],72%
same,remaining binding at 1 µM,kinome (kinase panel) [9],98%
same,remaining binding at 1 µM,kinome (kinase panel) [10],100%
same,remaining binding at 1 µM,kinome (kinase panel) [11],21%
same,remaining binding at 1 µM,kinome (kinase panel) [12],41%
same,remaining binding at 1 µM,kinome (kinase panel) [13],100%
same,remaining binding at 1 µM,kinome (kinase panel) [14],64%
same,remaining binding at 1 µM,kinome (kinase panel) [15],96%
same,IC50,mTOR,6910 nM
same,IC50,CDK9,< 2 nM
same,IC50 at 48 h,[16],34000 nM
same,IC50,BRD3 (BD2),226 nM
same,IC50,[17],640 nM
same,IC50,CDK4,< 2.5 nM
same,IC50,[18],830 nM
same,IC50,[19],550 nM
same,IC50,BRD2 (BD1),1410 nM
